# Reference: BindingDB's records for doi:10.1021/jm049651m (Uppsala University, 2004)
# Bridge positions count the residues as written; N and C are the ends. Square brackets hold non-standard residues; d marks the D form. Peptide text beside a SMILES is read from it. hCys = N[C@@H](CCS)C(=O)O
# Biological target: Type-2 angiotensin II receptor (Sus scrofa)
# Test: Displacement of [125I]-Ang II from pig uterus myometrium angiotensin II type 2 (AT2) receptor
smiles,measurement,value
"NC(N)=NCCC[C@H](NC(=O)[C@@H](N)CC(=O)O)C(=O)N[C@H]1CCSSCC[C@@H](C(=O)N[C@@H](Cc2c[nH]cn2)C(=O)N2CCC[C@H]2C(=O)N[C@@H](Cc2ccccc2)C(=O)O)NC(=O)[C@H](Cc2ccc(O)cc2)NC1=O [c[Hcy3,5]Ang II] (H-DR[hCys]Y[hCys]HPF-OH; disulfide 3-5)",Ki,2.1 nM
